As usually defined, the melting point is the temperature, or range, at which the solid turns liquid. Consider `COc1cc(COc2nn(-c3ccccc3)cc2/C=C/C#N)ccc1OCc1nc(-c2ccco2)oc1C` [Example 95, (2E)-3-{3-[(4-{[2-(2-furyl)-5-methyl-1,3-oxazol-4-yl]methoxy}-3-methoxybenzyl)oxy]-1-phenyl-1H-pyrazol-4-yl}-2-propenenitrile], for which the melting point was 177 to 178 °C.
With `COc1cc(COc2nn(-c3ccccc3)cc2C=C(C#N)C#N)ccc1OCc1nc(-c2ccco2)oc1C` [Example 96, ({3-[(4-{[2-(2-furyl)-5-methyl-1,3-oxazol-4-yl]methoxy}-3-methoxybenzyl)oxy]-1-phenyl-1H-pyrazol-4-yl)methylene) malononitrile], the melting point lay within 190 to 191 °C.
Turning to `COc1cc(COc2nn(-c3ccccc3)cc2/C=C/C(=O)N2CCOCC2)ccc1OCc1nc(-c2ccco2)oc1C` [Example 98, 4-((2E)-3-{3-[(4-{[2-(2-furyl)-5-methyl-1,3-oxazol-4-yl]methoxy}-3-methoxybenzyl)oxy]-1-phenyl-1H-pyrazol-4-yl}-2-propenoyl)morpholine], the melting point was 180 to 181 °C.
Take `COc1cc(COc2nn(-c3ccccc3)cc2/C=C/C2=NCCO2)ccc1OCc1nc(-c2ccco2)oc1C` [Example 99, 4-({4-[({4-[(E)-2-(4,5-dihydro-1,3-oxazol-2-yl)ethenyl]-1-phenyl-1H-pyrazol-3-yl}oxy)methyl]-2-methoxyphenoxy}methyl)-2-(2-furyl)-5-methyl-1,3-oxazole]: the melting point was 162 to 163 °C.
`COCc1cn(-c2ccccc2)nc1OCc1ccc(OCc2nc(-c3ccco3)oc2C)c(OC)c1` [Example 101, 2-(2-furyl)-4-{[2-methoxy-4-({[4-(methoxymethyl)-1-phenyl-1H-pyrazol-3-yl]oxy}methyl)phenoxy]methyl}-5-methyl-1,3-oxazole] came in with a melting point of 121 to 122 °C.
Consider `CNCc1cn(-c2ccccc2)nc1OCc1ccc(OCc2nc(-c3ccco3)oc2C)c(OC)c1` [Example 102, N-({3-[(4-{[2-(2-furyl)-5-methyl-1,3-oxazol-4-yl]methoxy}-3-methoxybenzyl)oxy]-1-phenyl-1H-pyrazol-4-yl}methyl)-N-methylamine], for which the melting point fell in the range of 103 to 104 °C.
For the compound `COc1cc(COc2nn(-c3ccccc3)cc2CCO)ccc1OCc1nc(-c2ccco2)oc1C` [Example 104, 2-{3-[(4-{[2-(2-furyl)-5-methyl-1,3-oxazol-4-yl]methoxy}-3-methoxybenzyl)oxy]-1-phenyl-1H-pyrazol-4-yl}ethanol], the melting point was in the range of 123 to 124 °C.
Consider `COc1cc(COc2nn(-c3ccccc3)cc2/C=C2\SC(=O)N(C)C2=O)ccc1OCc1nc(-c2ccco2)oc1C` [Example 105, (5Z)-5-({3-[(4-{[2-(2-furyl)-5-methyl-1,3-oxazol-4-yl]methoxy}-3-methoxybenzyl)oxy]-1-phenyl-1H-pyrazol-4-yl}methylene)-3-methyl-1,3-thiazolidine-2,4-dione], for which the melting point lay in the range of 215 to 216 °C.
Consider `COc1cc(COc2nn(-c3ccccc3)cc2CC2SC(=O)N(C)C2=O)ccc1OCc1nc(-c2ccco2)oc1C` (stereo not drawn) [Example 106, 5-({3-[(4-{[2-(2-furyl)-5-methyl-1,3-oxazol-4-yl]methoxy}-3-methoxybenzyl)oxy]-1-phenyl-1H-pyrazol-4-yl}methyl)-3-methyl-1,3-thiazolidine-2,4-dione], for which the melting point lay within 111 to 112 °C.
Consider `COc1cc(COc2nn(-c3ccccc3)cc2-c2cnco2)ccc1OCc1nc(-c2ccco2)oc1C` [Example 107, 2-(2-furyl)-4-{[2-methoxy-4-({[4-(1,3-oxazol-5-yl)-1-phenyl-1H-pyrazol-3-yl]oxy}methyl)phenoxy]methyl}-5-methyl-1,3-oxazole], for which the melting point is 153 to 154 °C.
In turn, `COc1cc(COc2nn(-c3ccccc3)cc2/C=C/CO)ccc1OCc1nc(-c2ccco2)oc1C` [Example 108, (2E)-3-{3-[(4-([2-(2-furyl)-5-methyl-1,3-oxazol-4-yl]methoxy}-3-methoxybenzyl)oxy]-1-phenyl-1H-pyrazol-4-yl}-2-propen-1-ol] had a melting point of 120 to 121 °C.
In the case of `COc1cc(COc2nn(-c3ccccc3)cc2/C=C/C=O)ccc1OCc1nc(-c2ccco2)oc1C` [Example 109, (2E)-3-{3-[(4-{[2-(2-furyl)-5-methyl-1,3-oxazol-4-yl]methoxy}-3-methoxybenzyl)oxy]-1-phenyl-1H-pyrazol-4-yl}-2-propenaldehyde], the melting point was in the range of 134 to 135 °C.
On to `C=CC(c1cn(-c2ccccc2)nc1OCc1ccc(OCc2nc(-c3ccco3)oc2C)c(OC)c1)n1cncn1` (stereo not drawn) [Example 110, 1-(1-{3-[(4-{[2-(2-furyl)-5-methyl-1,3-oxazol-4-yl]methoxy}-3-methoxybenzyl)oxy]-1-phenyl-1H-pyrazol-4-yl}-2-propenyl)-1H-1,2,4-triazole], for which the melting point was 115 to 116 °C.
As for `COc1cc(COc2nn(-c3ccccc3)cc2/C=C/c2cscn2)ccc1OCc1nc(-c2ccco2)oc1C` [Example 111 (E form), 2-(2-furyl)-4-({2-methoxy-4-[({1-phenyl-4-[(E)-2-(1,3-thiazol-4-yl)ethenyl]-1H-pyrazol-3-yl}oxy)methyl]phenoxy)methyl)-5-methyl-1,3-oxazole], the melting point was 136 to 137 °C.
Next, `COc1cc(COc2nn(-c3ccccc3)cc2/C=C\c2cscn2)ccc1OCc1nc(-c2ccco2)oc1C` [Example 111 (Z form), 2-(2-furyl)-4-({2-methoxy-4-[({1-phenyl-4-[(Z)-2-(1,3-thiazol-4-yl)ethenyl]-1H-pyrazol-3-yl}oxy)methyl]phenoxy}methyl)-5-methyl-1,3-oxazole]: 137 to 138 °C.
Next, `COc1cc(COc2nn(-c3ccccc3)cc2/C=C/c2ccccn2)ccc1OCc1nc(-c2ccco2)oc1C` [Example 113, 2-((E)-2-{3-[(4-{[2-(2-furyl)-5-methyl-1,3-oxazol-4-yl]methoxy}-3-methoxybenzyl)oxy]-1-phenyl-1H-pyrazol-4-yl}ethenyl)pyridine]: 135 to 136 °C.
Next, `COc1cc(COc2nn(-c3ccccc3)cc2/C=C/c2cnco2)ccc1OCc1nc(-c2ccco2)oc1C` [Example 114, 2-(2-furyl)-4-({2-methoxy-4-[({4-[(E)-2-(1,3-oxazol-5-yl)ethenyl]-1-phenyl-1H-pyrazol-3-yl}oxy)methyl]phenoxy}methyl)-5-methyl-1,3-oxazole]: 137 to 138 °C; `CCCc1nnc(/C=C/c2cn(-c3ccccc3)nc2OCc2ccc(OCc3nc(-c4ccco4)oc3C)c(OC)c2)o1` [Example 115, 2-((E)-2-{3-[(4-{[2-(2-furyl)-5-methyl-1,3-oxazol-4-yl]methoxy}-3-methoxybenzyl)oxy]-1-phenyl-1H-pyrazol-4-yl}ethenyl)-5-propyl-1,3,4-oxadiazole]: 172 to 173 °C; `COc1cc(COc2nn(-c3ccccc3)cc2/C=C/c2nnco2)ccc1OCc1nc(-c2ccco2)oc1C` [Example 118, 2-((E)-2-{3-[(4-{[2-(2-furyl)-5-methyl-1,3-oxazol-4-yl]methoxy}-3-methoxybenzyl)oxy]-1-phenyl-1H-pyrazol-4-yl}ethenyl)-1,3,4-oxadiazole]: 162 to 163 °C.
Compound `COc1cc(COc2nn(-c3ccccc3)cc2CCc2cscn2)ccc1OCc1nc(-c2ccco2)oc1C` [Example 119, 2-(2-furyl)-4-({2-methoxy-4-[({1-phenyl-4-[2-(1,3-thiazol-4-yl)ethyl]-1H-pyrazol-3-yl}oxy)methyl]phenoxy}methyl)-5-methyl-1,3-oxazole] gave a melting point of 127 to 128 °C.
On to `CCCc1nnc(Cc2cn(-c3ccccc3)nc2OCc2ccc(OCc3nc(-c4ccco4)oc3C)c(OC)c2)o1` [Example 120, 2-({3-[(4-{[2-(2-furyl)-5-methyl-1,3-oxazol-4-yl]methoxy}-3-methoxybenzyl)oxy]-1-phenyl-1H-pyrazol-4-yl}methyl)-5-propyl-1,3,4-oxadiazole], for which the melting point was 102 to 103 °C.
For `COc1cc(COc2nn(-c3ccccc3)cc2CC2=NCCO2)ccc1OCc1nc(-c2ccco2)oc1C` [Example 121, 4-{[4-({[4-(4,5-dihydro-1,3-oxazol-2-ylmethyl)-1-phenyl-1H-pyrazol-3-yl]oxy}methyl)-2-methoxyphenoxy]methyl}-2-(2-furyl)-5-methyl-1,3-oxazole], the melting point is 95 to 96 °C.
Take `COc1cc(COc2nn(-c3ccccc3)cc2Cn2cncn2)ccc1OCc1nc(-c2ccco2)oc1C` [Example 122, 1-({3-[(4-{[2-(2-furyl)-5-methyl-1,3-oxazol-4-yl]methoxy}-3-methoxybenzyl)oxy]-1-phenyl-1H-pyrazol-4-yl}methyl)-1H-1,2,4-triazole]: the melting point was 149 to 150 °C.
`CCCc1nnc(CCc2cc(OCc3ccc(OCc4nc(-c5ccccc5)oc4C)c(OC)c3)nn2-c2ccccc2)o1` [Example 123, 2-{2-[3-({3-methoxy-4-[(5-methyl-2-phenyl-1,3-oxazol-4-yl)methoxy]benzyl}oxy)-1-phenyl-1H-pyrazol-5-yl]ethyl}-5-propyl-1,3,4-oxadiazole] returned a melting point of 85 to 86 °C.
Consider `CCCc1noc(/C=C/c2cn(-c3ccccc3)nc2OCc2ccc(OCc3nc(-c4ccco4)oc3C)c(OC)c2)n1` [Example 124, 5-((E)-2-{3-[(4-{[2-(2-furyl)-5-methyl-1,3-oxazol-4-yl]methoxy}-3-methoxybenzyl)oxy]-1-phenyl-1H-pyrazol-4-yl}ethenyl)-3-propyl-1,2,4-oxadiazole], for which the melting point was 192 to 193 °C.
Turning to `COc1cc(COc2nn(-c3ccccc3)cc2/C=C/c2nnc(C)o2)ccc1OCc1nc(-c2ccco2)oc1C` [Example 125, 2-((E)-2-{3-[(4-{[2-(2-furyl)-5-methyl-1,3-oxazol-4-yl]methoxy}-3-methoxybenzyl)oxy]-1-phenyl-1H-pyrazol-4-yl}ethenyl)-5-methyl-1,3,4-oxadiazole], the melting point was 186 to 187 °C.
As for `CCc1nnc(/C=C/c2cn(-c3ccccc3)nc2OCc2ccc(OCc3nc(-c4ccco4)oc3C)c(OC)c2)o1` [Example 126, 2-ethyl-5-((E)-2-{3-[(4-{[2-(2-furyl)-5-methyl-1,3-oxazol-4-yl]methoxy}-3-methoxybenzyl)oxy]-1-phenyl-1H-pyrazol-4-yl}ethenyl)-1,3,4-oxadiazole], the melting point was 183 to 184 °C.

The values are drawn from patent publication US7368578B2, “Five-membered heterocyclic compounds” (Takeda Pharmaceutical Company Limited, priority 2002, dated 2008).
